We go through one compound from the supplement of paper PMC11061612.

Experiment in all cases: combination Emax (second highest fraction inhibited in the dose matrix, 72 h); higher = more inhibition; extreme values may be limits of the assay
One experiment concerns FU97 (Gastric Carcinoma). In a few lines: (§1)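 Cell lines grown in DMEM/F12 or RPMI with 10% FBS were plated in 1536-well plates and held 24 hours at 37°C, 5% CO2 before 72 hours of exposure to two-drug dose matrices, with DMSO typically at 0.2%. CellTiter-Glo 2.0 luminescence gave viability, which was converted to inhibition. Vehicle wells were set to 0 and blank wells to 1. Combination Emax is the second-highest inhibition in the matrix, and Bliss excess is the observed combination effect minus the expected EA + EB − EA·EB, where EA and EB are the single-agent effects.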

The test system of the next experiment is NCI-H2591 (Mesothelioma). In a few lines: as §1
A further experiment has as its system U-2-OS (Osteosarcoma). In a few lines: as §1
For a further experiment, the system named is IGR-37 (Melanoma). In a few lines: as §1
In experiment [1] the test system is HCC1954 (Breast Carcinoma). In a few lines: as §1
Experiment [2] relates to NCI-H1581 (Non-Small Cell Lung Carcinoma). In a few lines: as §1
Experiment [3] deals with KARPAS-422 (B-Cell Non-Hodgkin's Lymphoma). In a few lines: as §1
The test system of experiment [4] is BICR22 (Oral Cavity Carcinoma). In a few lines:
as §1

In experiment [5] the test system is TT (Thyroid Gland Carcinoma). In a few lines:
as §1

Experiment [6] relates to ECC10 (Gastric Carcinoma). In a few lines:
as §1

Experiment [7] concerns NCI-H64 (Small Cell Lung Carcinoma). In a few lines: as §1
In experiment [8] the test system is ONS-76 (Other Solid Carcinomas). In a few lines:
as §1

Experiment [9] has as its system CAPAN-2 (Pancreatic Carcinoma). In a few lines:
as §1

Experiment [10] relates to NCI-H1666 (Lung Adenocarcinoma). In a few lines:
as §1

In experiment [11] the test system is COLO-320-HSR (Colorectal Carcinoma). In a few lines:
as §1

In experiment [12] the test system is VCaP (Prostate Carcinoma). In a few lines: as §1
Experiment [13] has as its system NCI-H2066 (Squamous Cell Lung Carcinoma). In a few lines: as §1
The subject of experiment [14] is CCK-81 (Colorectal Carcinoma). In a few lines: as §1
For a further experiment, the system named is NY (Osteosarcoma). In a few lines: as §1
The test system of the next experiment is LN-405 (Glioblastoma). In a few lines: as §1

The structures appear in SMILES notation.

`CS(=O)(=O)CCNCc1ccc(-c2ccc3ncnc(Nc4ccc(OCc5cccc(F)c5)c(Cl)c4)c3c2)o1` [Lapatinib] + NC1(c2ccc(-c3nc4ccn5c(=O)[nH]nc5c4cc3-c3ccccc3)cc2)CCC1 [MK-2206] (first compound max 10 µM, 7x7, partner max 10 µM): the “combination Emax” value in the experiment with FU97 (Gastric Carcinoma) turned out to be 0.795; in the experiment with NCI-H2591 (Mesothelioma), 0.418; with U-2-OS (Osteosarcoma), 0.257; with IGR-37 (Melanoma) it was 0.901; in experiment [1], 0.939; in experiment [2], 0.462. Besides, the “combination Emax” value was 0.986 in experiment [3]; 0.93 in experiment [4]; 0.625 in experiment [5]; 0.972 in [6]; 0.533 in experiment [7]; 0.783 in [8]. In addition, the “combination Emax” value is 0.299 in experiment [9]; 0.898 in experiment [10]; 0.925 in experiment [11]; 0.478 in experiment [12]; 0.659 in experiment [13]; 0.985 in [14]. Also, the “combination Emax” value in the experiment on NY (Osteosarcoma) amounted to 0.246; in the experiment with LN-405 (Glioblastoma), 0.789.
